Data as given in patent USRE37781E1, “Substituted cyclic carbonyls and derivatives thereof useful as retroviral protease inhibitors” (DuPont Pharmaceuticals Company, priority 1991, dated 2002).
Read-outs that look alike come from different tables or passages of the source.

Key:
HIV-1 (RF) in MT-2 cells = test: microbe, parasite or virus in culture; format: cell-based
In short: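 HIV-1 laboratory strains (RF, MN, IIIB) grown in H9 cells in RPMI 1640 with 5% FCS; infections in MT-2 cells. Viral RNA quantified by hybridization with biotinylated gag/pol capture probes on streptavidin plates and alkaline phosphatase-conjugated reporter probes; BH10 gag-pol in vitro transcripts serve as RNA standards.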

[1] = target: single-chain tethered dimer of HIV protease (Human immunodeficiency virus 1, UniProt P04585); test: biochemical; format: biochemical; set-up: fused on or other part: A second copy of the same protease unit is joined to the first by a short peptide tether, giving one polypeptide
[2] = Table 2d, class symbols, read-out: HPLC K1
[3] = Human immunodeficiency virus 1, MT2, 48 h, Table 2d, class symbols, read-out: IC90
[4] = read-out: HPLC K1, Table 2d, class symbols
[5] = Human immunodeficiency virus 1, MT2, 48 h, Table 2d, HIV RNA assay, read-out: IC90
[6] = read-out: HPLC K1, Table 2d, HIV protease inhibition, HPLC method
[7] = Table 2d, HIV protease inhibition, HPLC method, read-out: HPLC K1

COC(=O)c1cccc(CN2C(=O)N(Cc3cccc(C(=O)OC)c3)C(Cc3ccc(F)c(F)c3)C(O)C(O)C2Cc2ccc(F)c(F)c2)c1 (stereo not drawn) [20Y] was tested, and the IC90 (HIV-1 (RF) in MT-2 cells; Table 2i) was “+++ (+++=<10 μg/mL)” and the Ki ([1]; Table 2i, read-out: HPLC Ki) was < 10 nM.
In the case of CC(O)c1ccc(CN2C(=O)N(Cc3ccc(C(C)O)cc3)C(Cc3ccccc3)C(O)C(O)C2Cc2ccccc2)cc1 (stereo not drawn) [20M], the IC90 (HIV-1 (RF) in MT-2 cells; Table 2i) is reported as “+++ (+++=<10 μg/mL)” and the Ki ([1]; Table 2i, read-out: HPLC Ki) is reported as < 10 nM.
CCOC(=O)c1cccc(CN2C(=O)N(Cc3cccc(C(=O)OCC)c3)C(Cc3ccccc3)C(O)C(O)C2Cc2ccccc2)c1 (stereo not drawn) [10W] was tested, and the IC90 (HIV-1 (RF) in MT-2 cells; Table 2d, class symbols) was “+ (+=>100 μg/mL)” and the Ki [1, 2] was < 10 nM.
In the case of O=C1N(CCCCCO)C(Cc2ccccc2)C(O)C(O)C(Cc2ccccc2)N1CC1CC1 (stereo not drawn) [Example 15VU], the IC90 (HIV-1 (RF) in MT-2 cells; [3]) is reported as < 10 µg/mL and the Ki [1, 4] is reported as < 10 nM.
CSCCCCCN1C(=O)N(CCCCCO)C(Cc2ccccc2)C(O)C(O)C1Cc1ccccc1 (stereo not drawn) [Example 15VJ] was tested, and the IC90 (HIV-1 (RF) in MT-2 cells; [3]) was < 10 µg/mL and the Ki [1, 4] was 10 to 1000 nM.
In the case of CCC(O)CN1C(=O)NC(Cc2ccccc2)C(O)C(O)C1Cc1ccccc1 (stereo not drawn) [Example 15VL], the IC90 (HIV-1 (RF) in MT-2 cells; [3]) is reported as > 50 µg/mL and the Ki [1, 4] is reported as > 1000 nM.
With CC(C)(C)Sc1ncccc1CN1C(=O)N(Cc2cccnc2SC(C)(C)C)C(Cc2ccccc2)C(O)C(O)C1Cc1ccccc1 (stereo not drawn) [Example 14B] the IC90 (HIV-1 (RF) in MT-2 cells; [3]) was < 10 µg/mL and the Ki [1, 4] was 10 to 1000 nM.
In the case of Cl.O=C(OCc1ccc(CN2C(=O)N(Cc3ccc(COC(=O)c4ccc(CN5CCOCC5)cc4)cc3)[C@H](Cc3ccccc3)[C@H](O)[C@@H](O)[C@H]2Cc2ccccc2)cc1)c1ccc(CN2CCOCC2)cc1 [29T], the IC90 (HIV-1 (RF) in MT-2 cells; Table 2s) is reported as “+++ (+++=<10 μg/mL)” and the Ki ([1]; Table 2s, read-out: Ki (HPLC)) is reported as > 1000 nM.
For CCC(=O)c1cccc(CN2C(=O)N(Cc3cccc(C(=O)CC)c3)C(Cc3ccccc3)C(O)C(O)C2Cc2ccccc2)c1 (stereo not drawn) [Example 15XN], the IC90 (HIV-1 (RF) in MT-2 cells; [5]) was < 10 µg/mL and the Ki [1, 6] was < 10 nM.
With CN1C(Cc2ccccc2)C(O)C(O)C(Cc2ccccc2)N(C)S1(=O)=O (stereo not drawn) [23V] the IC90 (HIV-1 (RF) in MT-2 cells; Table 2m) was “++/+ (The ++/+ is used in the cases where an IC90 was determined to be >50 μg/mL)” and the Ki ([1]; Table 2m, read-out: HPLC Ki) was > 1000 nM.
With CCN1C(Cc2ccccc2)C(O)C(O)C(Cc2ccccc2)N(CC)S1(=O)=O (stereo not drawn) [23W] the IC90 (HIV-1 (RF) in MT-2 cells; Table 2m) was “++ (++=10 to 100 μg/mL)” and the Ki ([1]; Table 2m, read-out: HPLC Ki) was 10 to 1000 nM.
With CCNC(=O)c1cccc(CN2C(=O)N(Cc3cccc(C(=O)OC)c3)C(Cc3ccccc3)C(O)C(O)C2Cc2ccccc2)c1 (stereo not drawn) [11U] the IC90 (HIV-1 (RF) in MT-2 cells; [3]) was < 10 µg/mL and the Ki [1, 4] was < 10 nM.
In the case of COc1cccc(CC2C(O)C(O)C(Cc3cccc(OC)c3)N(Cc3ccccc3)C(=O)N2Cc2ccccc2)c1 (stereo not drawn) [Example 20W], the IC90 (HIV-1 (RF) in MT-2 cells; Table 2i) is reported as “+++ (+++=<10 μg/mL)” and the Ki ([1]; Table 2i, read-out: HPLC Ki) is reported as < 10 nM.
In the case of O=C1NC(Cc2ccccc2)C(O)C(O)C(Cc2ccccc2)N1CC1CCC(=NO)CC1 (stereo not drawn) [Example 15VC], the IC90 (HIV-1 (RF) in MT-2 cells; Table 2d, class symbols) is reported as “++/+ (The ++/+ is used in the cases where an IC90 was determined to be >50 μg/mL)” and the Ki [1, 2] is reported as 10 to 1000 nM.
In the case of O=C1N(Cc2ccc(CO)cc2)C(Cc2ccccc2)C(O)C(O)C(Cc2ccccc2)N1Cc1ccc(CO)cc1 (stereo not drawn) [10Z], the IC90 (HIV-1 (RF) in MT-2 cells; Table 2d, class symbols) is reported as “++ (++=10 to 100 μg/mL)” and the Ki [1, 4] is reported as > 1000 nM.
O=C1Cc2cc(CN3C(=O)N(Cc4ccc5c(c4)CC(=O)N5)C(Cc4ccccc4)C(O)C(O)C3Cc3ccccc3)ccc2N1 (stereo not drawn) [15DD] was tested, and the IC90 (HIV-1 (RF) in MT-2 cells; Table 2d, HIV RNA assay) was “+++ (+++=<10 μg/mL)” and the Ki [1, 7] was < 10 nM.
With CNc1cccc(CN2C(=O)N(Cc3ccc(CO)cc3)C(Cc3ccccc3)C(O)C(O)C2Cc2ccccc2)c1 (stereo not drawn) [15M] the IC90 (HIV-1 (RF) in MT-2 cells; [3]) was < 10 µg/mL and the Ki [1, 4] was < 10 nM.
CNc1cccc(CN2[C@H](Cc3ccccc3)[C@H](O)[C@@H](O)[C@@H](Cc3ccccc3)N(Cc3cccc(NC)c3)P2(=O)Oc2ccccc2)c1 (stereo partly drawn) [28L] was tested, and the IC90 (HIV-1 (RF) in MT-2 cells; Table 2r) was “++ (++=10 to 100 μg/mL)” and the Ki ([1]; Table 2r, read-out: Ki HPLC) was 10 to 1000 nM.
O=C1N(Cc2cccc(O)c2)C(Cc2ccccc2)C(O)C(O)C(Cc2ccccc2)N1Cc1ccc2[nH]nnc2c1 (stereo not drawn) [15DR] was tested, and the IC90 (HIV-1 (RF) in MT-2 cells; Table 2d, HIV RNA assay) was “+++ (+++=<10 μg/mL)” and the Ki [1, 7] was < 10 nM.
With O=C(NCCN1CCOCC1)c1cccc(CN2C(=O)N(Cc3cccc(C(=O)NCCN4CCOCC4)c3)C(Cc3ccccc3)C(O)C(O)C2Cc2ccccc2)c1 (stereo not drawn) [15XU] the IC90 (HIV-1 (RF) in MT-2 cells; Table 2d, HIV RNA assay) was “+++ (+++=<10 μg/mL)” and the Ki [1, 7] was < 10 nM.
In the case of N#Cc1cccc(CN2C(=O)N(Cc3cccc(-c4cc[nH]n4)c3)C(Cc3ccccc3)C(O)C(O)C2Cc2ccccc2)c1 (stereo not drawn) [Example 15BV], the IC90 (HIV-1 (RF) in MT-2 cells; [5]) is reported as < 10 µg/mL and the Ki [1, 6] is reported as < 10 nM.
COP1(=O)N(Cc2ccc(CO)cc2)[C@H](Cc2ccccc2)[C@H](O)[C@@H](O)[C@@H](Cc2ccccc2)N1Cc1ccc(CO)cc1 (stereo partly drawn) [28H] was tested, and the IC90 (HIV-1 (RF) in MT-2 cells; Table 2r) was “++ (++=10 to 100 μg/mL)” and the Ki ([1]; Table 2r, read-out: Ki HPLC) was 10 to 1000 nM.
For N#Cc1cccc(CN2C(=O)N(Cc3cccnc3)C(Cc3ccccc3)C(O)C(O)C2Cc2ccccc2)c1 (stereo not drawn) [Example 15AR], the IC90 (HIV-1 (RF) in MT-2 cells; [5]) was < 10 µg/mL and the Ki [1, 6] was < 10 nM.
For O=C1N(CC2CC2)C(Cc2ccccc2)C(O)C(O)C(Cc2ccccc2)N1c1ccccn1 (stereo not drawn) [Example 14D], the IC90 (HIV-1 (RF) in MT-2 cells; [3]) was < 10 µg/mL and the Ki [1, 4] was 10 to 1000 nM.
